From ChEMBL document CHEMBL4028801, “A multifactorial approach to hepatobiliary transporter assessment enables improved therapeutic compound development” (Toxicol Sci, 2013)

Tests used:
[1] = Drug concentration at steady state in human at 20 to 80 mg, po QD after 24 hrs; type: ADME, organism-based; details: in vivo, read-out: Css
[2] = molecular target: ATP-binding cassette sub-family C member 2 (Homo sapiens, UniProt Q92887); experiment: Inhibition of human MRP2 overexpressed in Sf9 cell membrane vesicles assessed as uptake of [3H]-estradiol-17beta-D-glucuronide in presence of ATP and GSH measured after 20 mins by membrane vesicle transport assay
[3] = molecular target: ATP-binding cassette sub-family C member 3 (Homo sapiens, UniProt O15438); experiment: Inhibition of human MRP3 overexpressed in Sf9 insect cell membrane vesicles assessed as uptake of [3H]-estradiol-17beta-D-glucuronide in presence of ATP and GSH measured after 10 mins by membrane vesicle transport assay; type: ADME, cell-based
[4] = molecular target: T1, ATP-binding cassette sub-family C member 4 (Homo sapiens, UniProt O15439); experiment: Inhibition of human MRP4 overexpressed in Sf9 cell membrane vesicles assessed as uptake of [3H]-estradiol-17beta-D-glucuronide in presence of ATP and GSH measured after 20 mins by membrane vesicle transport assay; type: ADME, cell-based
T1 sequence (O15439 whole entry): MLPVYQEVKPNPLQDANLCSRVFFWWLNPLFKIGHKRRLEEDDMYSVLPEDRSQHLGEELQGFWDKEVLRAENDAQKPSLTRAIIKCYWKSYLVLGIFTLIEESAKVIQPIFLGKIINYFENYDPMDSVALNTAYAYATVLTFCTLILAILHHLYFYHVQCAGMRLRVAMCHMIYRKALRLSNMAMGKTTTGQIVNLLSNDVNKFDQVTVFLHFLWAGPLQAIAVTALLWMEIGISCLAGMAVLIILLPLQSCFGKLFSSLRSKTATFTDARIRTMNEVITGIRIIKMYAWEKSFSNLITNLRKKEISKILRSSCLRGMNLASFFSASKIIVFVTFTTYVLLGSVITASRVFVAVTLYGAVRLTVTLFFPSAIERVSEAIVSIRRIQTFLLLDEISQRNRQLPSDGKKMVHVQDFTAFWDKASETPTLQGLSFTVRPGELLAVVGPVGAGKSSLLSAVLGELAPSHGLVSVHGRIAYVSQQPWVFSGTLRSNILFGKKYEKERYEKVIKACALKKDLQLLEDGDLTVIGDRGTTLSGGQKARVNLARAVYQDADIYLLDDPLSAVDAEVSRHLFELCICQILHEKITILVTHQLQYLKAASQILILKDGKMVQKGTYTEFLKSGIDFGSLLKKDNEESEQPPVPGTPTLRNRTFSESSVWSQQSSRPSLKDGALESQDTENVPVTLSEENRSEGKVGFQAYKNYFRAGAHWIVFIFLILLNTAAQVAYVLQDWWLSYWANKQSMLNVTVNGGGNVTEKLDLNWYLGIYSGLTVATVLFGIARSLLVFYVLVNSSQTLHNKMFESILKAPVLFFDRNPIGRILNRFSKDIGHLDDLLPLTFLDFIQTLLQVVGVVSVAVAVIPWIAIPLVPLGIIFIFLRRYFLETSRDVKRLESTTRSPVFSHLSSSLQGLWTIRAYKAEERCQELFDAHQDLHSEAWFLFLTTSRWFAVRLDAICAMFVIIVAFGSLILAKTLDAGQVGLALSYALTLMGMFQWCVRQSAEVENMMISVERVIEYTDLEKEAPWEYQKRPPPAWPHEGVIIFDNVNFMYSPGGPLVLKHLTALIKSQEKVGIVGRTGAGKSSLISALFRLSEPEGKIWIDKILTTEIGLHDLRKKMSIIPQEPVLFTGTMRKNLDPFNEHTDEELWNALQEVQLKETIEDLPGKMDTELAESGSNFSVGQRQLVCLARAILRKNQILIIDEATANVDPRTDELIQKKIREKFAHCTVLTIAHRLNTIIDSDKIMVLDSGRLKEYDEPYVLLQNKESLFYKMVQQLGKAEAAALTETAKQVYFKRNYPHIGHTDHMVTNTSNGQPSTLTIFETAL

[5] = AUC in human at 20 to 80 mg, po QD after 24 hrs; type: ADME, organism-based; details: in vivo
[6] = Ratio of drug concentration at steady state in human at 20 to 80 mg, po QD after 24 hrs to IC50 for human MRP3 overexpressed in Sf9 insect cells; type: ADME, organism-based; details: in vivo
[7] = Ratio of drug concentration at steady state in human at 20 to 80 mg, po QD after 24 hrs to IC50 for human MRP4 overexpressed in Sf9 insect cells; type: ADME, organism-based; details: in vivo
[8] = Ratio of drug concentration at steady state in human at 20 to 80 mg, po QD after 24 hrs to IC50 for human BSEP overexpressed in Sf9 insect cells; type: ADME, organism-based; details: in vivo
[9] = Ratio of drug concentration at steady state in human at 0.075 to 0.26 mg/kg, po after 24 hrs to IC50 for human BSEP overexpressed in Sf9 insect cells; type: ADME, organism-based; details: in vivo
[10] = molecular target: Bile salt export pump (Homo sapiens, UniProt O95342); experiment: Inhibition of human BSEP overexpressed in Sf9 cell membrane vesicles assessed as uptake of [3H]-taurocholate in presence of ATP measured after 15 to 20 mins by membrane vesicle transport assay; type: ADME, cell-based
[11] = AUC in human at 0.075 to 0.26 mg/kg, po after 24 hrs; type: ADME, organism-based; details: in vivo
[12] = Ratio of drug concentration at steady state in human at 0.075 to 0.26 mg/kg, po after 24 hrs to IC50 for human MRP2 overexpressed in Sf9 insect cells; type: ADME, organism-based; details: in vivo
[13] = system: Homo sapiens; experiment: Drug concentration at steady state in human at 0.075 to 0.26 mg/kg, po after 24 hrs; type: ADME, organism-based; details: in vivo
[14] = system: Homo sapiens; experiment: Drug concentration at steady state in human at 1 to 16 mg or 4 to 8 mg, po QD extended-release tablets after 24 hrs; type: ADME, organism-based; details: in vivo
[15] = Ratio of drug concentration at steady state in human at 1 to 16 mg or 4 to 8 mg, po QD extended-release tablets after 24 hrs to IC50 for human BSEP overexpressed in Sf9 insect cells; type: ADME, organism-based; details: in vivo
[16] = Ratio of drug concentration at steady state in human at 1 to 16 mg or 4 to 8 mg, po QD extended-release tablets after 24 hrs to IC50 for human MRP4 overexpressed in Sf9 insect cells; type: ADME, organism-based; details: in vivo
[17] = AUC in human at 1 to 16 mg or 4 to 8 mg, po QD extended-release tablets after 24 hrs; type: ADME, organism-based; details: in vivo
[18] = Ratio of drug concentration at steady state in human at 0.5 to 4 mg, po BID/TID/QID after 6 hrs to IC50 for human MRP3 overexpressed in Sf9 insect cells; type: ADME, organism-based; details: in vivo
[19] = Ratio of drug concentration at steady state in human at 0.5 to 4 mg, po BID/TID/QID after 6 hrs to IC50 for human MRP4 overexpressed in Sf9 insect cells; type: ADME, organism-based; details: in vivo
[20] = Ratio of drug concentration at steady state in human at 0.5 to 4 mg, po BID/TID/QID after 6 hrs to IC50 for human MRP2 overexpressed in Sf9 insect cells; type: ADME, organism-based; details: in vivo
[21] = Ratio of drug concentration at steady state in human at 0.5 to 4 mg, po BID/TID/QID after 6 hrs to IC50 for human BSEP overexpressed in Sf9 insect cells; type: ADME, organism-based; details: in vivo
[22] = Drug concentration at steady state in human at 0.5 to 4 mg, po BID/TID/QID after 6 hrs; type: ADME, organism-based; details: in vivo, read-out: Css
[23] = AUC in human at 0.5 to 4 mg, po BID/TID/QID after 6 hrs; type: ADME, organism-based; details: in vivo
[24] = AUC in human at 30 to 60 mg, po QD after 24 hrs; type: ADME, organism-based; details: in vivo
[25] = Ratio of drug concentration at steady state in human at 400 mg, po BID after 12 hrs to IC50 for human BSEP overexpressed in Sf9 insect cells; type: ADME, organism-based; details: in vivo
[26] = AUC in human at 400 mg, po BID after 12 hrs; type: ADME, organism-based; parameters: time < 12 hr, dose 400 mg, route oral; details: in vivo
[27] = Drug concentration at steady state in human at 400 mg, po BID after 12 hrs; type: ADME, organism-based; details: in vivo, read-out: Css
[28] = Ratio of drug concentration at steady state in human in alopecia patient at 1 mg, po QD after 24 hrs to IC50 for human MRP4 overexpressed in Sf9 insect cells; type: ADME, organism-based; details: in vivo
[29] = Drug concentration at steady state in alopecia patient at 1 mg, po QD after 24 hrs; type: ADME, organism-based; details: human, in vivo, read-out: Css
[30] = AUC in alopecia patient at 1 mg, po QD after 24 hrs; type: ADME, organism-based; parameters: time < 24 hr, dose 1 mg, route oral; details: human, in vivo
[31] = Ratio of drug concentration at steady state in human in alopecia patient at 1 mg, po QD after 24 hrs to IC50 for human BSEP overexpressed in Sf9 insect cells; type: ADME, organism-based; details: in vivo
[32] = Drug concentration at steady state in benign prostate hyperplasia patient at 5 mg, po QD after 24 hrs; type: ADME, organism-based; details: male, human, in vivo, read-out: Css
[33] = Ratio of drug concentration at steady state in human in benign prostate hyperplasia patient at 5 mg, po QD after 24 hrs to IC50 for human BSEP overexpressed in Sf9 insect cells; type: ADME, organism-based; details: in vivo
[34] = Ratio of drug concentration at steady state in human in benign prostate hyperplasia patient at 5 mg, po QD after 24 hrs to IC50 for human MRP4 overexpressed in Sf9 insect cells; type: ADME, organism-based; details: in vivo
[35] = AUC in benign prostate hyperplasia patient at 5 mg, po QD after 24 hrs; type: ADME, organism-based; parameters: time < 24 hr, dose 5 mg, route oral; details: male, human, in vivo
[36] = AUC in human at 15 mg, po QD for 14 days after 24 hrs; type: ADME, organism-based; parameters: dose 15 mg, time < 24 hr, route oral; details: in vivo
[37] = Ratio of drug concentration at steady state in human at 15 mg, po QD for 14 days after 24 hrs to IC50 for human BSEP overexpressed in Sf9 insect cells; type: ADME, organism-based; details: in vivo
[38] = Drug concentration at steady state in human at 15 mg, po QD for 14 days after 24 hrs; type: ADME, organism-based; details: in vivo, read-out: Css

Sequence of ATP-binding cassette sub-family C member 2 (Q92887 whole entry): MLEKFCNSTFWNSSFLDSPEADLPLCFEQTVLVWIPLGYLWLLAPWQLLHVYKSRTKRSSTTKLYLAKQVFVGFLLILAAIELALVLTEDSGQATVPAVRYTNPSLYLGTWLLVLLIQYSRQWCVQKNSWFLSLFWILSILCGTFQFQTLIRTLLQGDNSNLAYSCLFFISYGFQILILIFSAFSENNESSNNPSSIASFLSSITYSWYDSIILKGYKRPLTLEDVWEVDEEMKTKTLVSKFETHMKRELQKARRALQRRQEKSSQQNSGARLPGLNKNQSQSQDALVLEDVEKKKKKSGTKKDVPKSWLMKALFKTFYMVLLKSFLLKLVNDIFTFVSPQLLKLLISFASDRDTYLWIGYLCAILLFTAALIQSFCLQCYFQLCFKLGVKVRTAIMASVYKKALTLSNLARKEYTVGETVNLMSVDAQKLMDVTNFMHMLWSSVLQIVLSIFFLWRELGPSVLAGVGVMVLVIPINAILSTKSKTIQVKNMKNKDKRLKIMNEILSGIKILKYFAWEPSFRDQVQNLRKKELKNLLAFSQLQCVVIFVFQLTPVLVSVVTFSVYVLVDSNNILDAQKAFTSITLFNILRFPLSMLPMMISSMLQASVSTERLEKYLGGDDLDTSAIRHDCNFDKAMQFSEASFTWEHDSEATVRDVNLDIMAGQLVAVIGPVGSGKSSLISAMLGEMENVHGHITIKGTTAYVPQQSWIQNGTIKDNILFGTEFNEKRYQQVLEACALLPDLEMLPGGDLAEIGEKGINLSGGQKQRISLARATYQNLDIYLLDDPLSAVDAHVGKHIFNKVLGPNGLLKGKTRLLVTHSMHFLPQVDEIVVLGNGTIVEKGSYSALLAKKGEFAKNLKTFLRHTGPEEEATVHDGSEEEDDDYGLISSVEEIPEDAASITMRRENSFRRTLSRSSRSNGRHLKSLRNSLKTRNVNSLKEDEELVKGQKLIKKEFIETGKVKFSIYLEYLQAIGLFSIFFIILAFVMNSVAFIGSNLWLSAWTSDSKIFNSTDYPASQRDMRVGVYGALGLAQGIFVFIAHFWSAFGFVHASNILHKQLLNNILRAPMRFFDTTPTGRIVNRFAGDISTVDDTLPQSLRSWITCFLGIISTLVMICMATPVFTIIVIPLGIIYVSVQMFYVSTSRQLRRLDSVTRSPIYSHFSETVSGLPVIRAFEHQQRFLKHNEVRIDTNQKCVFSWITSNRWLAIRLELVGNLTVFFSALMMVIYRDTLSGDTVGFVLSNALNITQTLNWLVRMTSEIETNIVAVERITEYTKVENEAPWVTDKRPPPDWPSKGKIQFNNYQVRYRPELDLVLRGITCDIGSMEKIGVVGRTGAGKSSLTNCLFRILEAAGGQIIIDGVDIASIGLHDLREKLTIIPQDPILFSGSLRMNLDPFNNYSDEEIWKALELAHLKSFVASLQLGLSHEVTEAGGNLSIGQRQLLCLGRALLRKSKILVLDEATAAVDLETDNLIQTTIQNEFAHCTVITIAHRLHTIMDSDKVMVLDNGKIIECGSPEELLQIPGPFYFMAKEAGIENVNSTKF
Sequence of Bile salt export pump (O95342 whole entry): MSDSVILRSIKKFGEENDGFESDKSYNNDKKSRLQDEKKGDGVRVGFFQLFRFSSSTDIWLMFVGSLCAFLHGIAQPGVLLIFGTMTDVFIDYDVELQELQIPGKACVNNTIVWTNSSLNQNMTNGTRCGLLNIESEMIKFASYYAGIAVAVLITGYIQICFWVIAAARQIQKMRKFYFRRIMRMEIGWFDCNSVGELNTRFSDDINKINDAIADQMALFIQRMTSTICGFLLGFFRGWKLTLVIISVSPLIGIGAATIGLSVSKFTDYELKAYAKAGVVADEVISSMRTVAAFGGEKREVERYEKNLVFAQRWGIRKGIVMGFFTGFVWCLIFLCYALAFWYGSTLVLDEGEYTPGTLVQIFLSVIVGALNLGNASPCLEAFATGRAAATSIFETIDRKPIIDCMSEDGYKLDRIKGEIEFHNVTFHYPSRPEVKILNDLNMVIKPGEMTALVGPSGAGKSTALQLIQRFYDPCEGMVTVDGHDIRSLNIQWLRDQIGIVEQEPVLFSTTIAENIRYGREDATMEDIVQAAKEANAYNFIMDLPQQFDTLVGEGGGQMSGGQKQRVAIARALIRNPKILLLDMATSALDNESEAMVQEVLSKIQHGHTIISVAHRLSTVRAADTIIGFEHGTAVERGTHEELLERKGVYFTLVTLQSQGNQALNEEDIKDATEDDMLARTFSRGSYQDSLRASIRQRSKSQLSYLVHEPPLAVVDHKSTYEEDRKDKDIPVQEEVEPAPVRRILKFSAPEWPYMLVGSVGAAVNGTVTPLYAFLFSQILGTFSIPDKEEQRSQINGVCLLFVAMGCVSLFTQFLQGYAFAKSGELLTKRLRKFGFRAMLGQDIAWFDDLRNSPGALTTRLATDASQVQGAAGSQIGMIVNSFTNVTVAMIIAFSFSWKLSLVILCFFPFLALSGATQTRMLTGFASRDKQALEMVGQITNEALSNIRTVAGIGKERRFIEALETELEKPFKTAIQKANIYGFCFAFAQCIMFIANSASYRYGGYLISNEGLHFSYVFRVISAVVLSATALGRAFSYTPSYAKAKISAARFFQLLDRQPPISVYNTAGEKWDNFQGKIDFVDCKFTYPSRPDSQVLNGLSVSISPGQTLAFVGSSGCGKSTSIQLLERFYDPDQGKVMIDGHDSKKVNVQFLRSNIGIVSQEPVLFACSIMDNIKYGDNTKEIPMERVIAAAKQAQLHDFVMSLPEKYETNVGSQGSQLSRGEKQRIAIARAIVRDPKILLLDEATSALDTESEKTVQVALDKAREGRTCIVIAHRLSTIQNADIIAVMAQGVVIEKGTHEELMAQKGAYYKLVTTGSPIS
Sequence of ATP-binding cassette sub-family C member 3 (O15438 whole entry): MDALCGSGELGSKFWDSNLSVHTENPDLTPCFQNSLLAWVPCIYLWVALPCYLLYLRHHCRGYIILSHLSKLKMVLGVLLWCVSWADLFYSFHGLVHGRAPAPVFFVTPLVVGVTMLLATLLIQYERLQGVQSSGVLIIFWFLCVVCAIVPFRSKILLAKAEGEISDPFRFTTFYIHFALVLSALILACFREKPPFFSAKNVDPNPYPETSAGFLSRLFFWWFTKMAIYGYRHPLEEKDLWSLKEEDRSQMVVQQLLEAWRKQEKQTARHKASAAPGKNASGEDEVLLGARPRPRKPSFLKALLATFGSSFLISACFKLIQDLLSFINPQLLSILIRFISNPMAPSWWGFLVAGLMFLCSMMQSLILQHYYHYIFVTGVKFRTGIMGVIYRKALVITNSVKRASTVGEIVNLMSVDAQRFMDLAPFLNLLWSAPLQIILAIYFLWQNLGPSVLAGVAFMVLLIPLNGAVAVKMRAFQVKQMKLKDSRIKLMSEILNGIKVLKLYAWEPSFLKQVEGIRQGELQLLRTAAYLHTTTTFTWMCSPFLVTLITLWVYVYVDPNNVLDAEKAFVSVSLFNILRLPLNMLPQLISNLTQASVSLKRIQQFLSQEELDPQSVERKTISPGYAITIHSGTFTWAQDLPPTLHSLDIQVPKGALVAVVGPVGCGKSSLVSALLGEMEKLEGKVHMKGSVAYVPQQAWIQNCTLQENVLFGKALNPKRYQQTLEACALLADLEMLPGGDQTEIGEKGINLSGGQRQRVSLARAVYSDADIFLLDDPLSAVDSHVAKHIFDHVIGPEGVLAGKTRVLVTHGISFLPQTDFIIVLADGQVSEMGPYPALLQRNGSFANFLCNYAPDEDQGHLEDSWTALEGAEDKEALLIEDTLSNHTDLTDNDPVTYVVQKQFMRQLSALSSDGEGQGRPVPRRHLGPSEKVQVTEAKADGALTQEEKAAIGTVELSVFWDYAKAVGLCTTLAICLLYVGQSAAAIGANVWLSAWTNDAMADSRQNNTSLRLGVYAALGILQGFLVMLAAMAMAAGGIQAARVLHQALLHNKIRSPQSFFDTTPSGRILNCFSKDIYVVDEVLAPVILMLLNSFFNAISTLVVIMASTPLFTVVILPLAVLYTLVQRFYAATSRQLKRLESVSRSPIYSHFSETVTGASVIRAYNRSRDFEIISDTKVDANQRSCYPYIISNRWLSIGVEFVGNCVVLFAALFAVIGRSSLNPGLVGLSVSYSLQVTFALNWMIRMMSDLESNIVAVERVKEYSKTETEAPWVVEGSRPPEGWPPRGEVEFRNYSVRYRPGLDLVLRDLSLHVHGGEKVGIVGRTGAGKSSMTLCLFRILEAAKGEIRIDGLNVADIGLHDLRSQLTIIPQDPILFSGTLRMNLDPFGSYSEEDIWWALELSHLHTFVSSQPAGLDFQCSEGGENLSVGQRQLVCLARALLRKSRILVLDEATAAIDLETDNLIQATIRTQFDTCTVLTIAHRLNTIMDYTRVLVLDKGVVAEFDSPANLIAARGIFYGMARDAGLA

CCCc1nc2c(C)cc(-c3nc4ccccc4n3C)cc2n1Cc1ccc(-c2ccccc2C(=O)O)cc1
concentration at 24 h [1]: 149 nM | IC50 [2]: > 133 µM | IC50 [3]: 60 µM | IC50 [4]: 36 µM | AUC at 24 h [5]: 3.57 µM·h | Ratio [6]: 0.002 | Ratio [7]: 0.004 | Ratio [8]: 0.009

C=CC[C@@H]1/C=C(\C)C[C@H](C)C[C@H](OC)[C@H]2O[C@@](O)(C(=O)C(=O)N3CCCC[C@H]3C(=O)O[C@H](/C(C)=C/[C@@H]3CC[C@@H](O)[C@H](OC)C3)[C@H](C)[C@@H](O)CC1=O)[C@H](C)C[C@@H]2OC [TACROLIMUS ANHYDROUS]
Ratio [9]: 0.001 | IC50 [2]: 40.3 µM | IC50 [10]: 7.18 µM | AUC at 24 h [11]: 0.252 µM·h | IC50 [3]: > 133 µM | IC50 [4]: > 133 µM | Ratio [12]: 0 | Css [13]: 0.011 µM

COc1cc2nc(N3CCN(C(=O)C4COc5ccccc5O4)CC3)nc(N)c2cc1OC.CS(=O)(=O)O (configuration not stated) [DOXAZOSIN MESYLATE]
Css [14]: 0.068 µM | IC50 [2]: > 133 µM | IC50 [10]: 45 µM | Ratio [15]: 0.002 | Ratio [16]: 0.009 | AUC at 24 h [17]: 1.64 µM·h | IC50 [3]: > 133 µM | IC50 [4]: 8 µM

CCOc1cc(CC(=O)N[C@@H](CC(C)C)c2ccccc2N2CCCCC2)ccc1C(=O)O [REPAGLINIDE]
IC50 [2]: 72.3 µM | IC50 [10]: 22 µM | Ratio [18]: 0.001 | IC50 [3]: 16.7 µM | IC50 [4]: 53.9 µM | Ratio [19]: 0 | Ratio [20]: 0 | Ratio [21]: 0.00075 | concentration at 6 h [22]: 16 nM | AUC at 6 h [23]: 0.099 µM·h

COC(=O)C1=C(C)NC(C)=C(C(=O)OC)C1c1ccccc1[N+](=O)[O-] [NIFEDIPINE]
IC50 [2]: > 133 µM | IC50 [3]: > 133 µM | IC50 [4]: 16.6 µM | AUC at 24 h [24]: 3.48 µM·h

CCCCc1oc2ccc(NS(C)(=O)=O)cc2c1C(=O)c1ccc(OCCCN(CCCC)CCCC)cc1.Cl [DRONEDARONE HYDROCHLORIDE]
Ratio [25]: 0.002 | AUC at 12 h [26]: 1.6 µM·h | IC50 [2]: > 133 µM | IC50 [10]: 73.9 µM | IC50 [3]: > 133 µM | IC50 [4]: > 133 µM | concentration at 12 h [27]: 133 nM

CC(C)(C)NC(=O)[C@H]1CC[C@H]2[C@@H]3CC[C@H]4NC(=O)C=C[C@]4(C)[C@H]3CC[C@]12C [FINASTERIDE]
Ratio [28]: 0.001 | IC50 [2]: > 133 µM | concentration at 24 h [29]: 41 nM | AUC at 24 h [30]: 0.993 µM·h | Ratio [31]: 0.00147 | concentration at 24 h [32]: 41 nM | IC50 [3]: > 133 µM | IC50 [4]: 51 µM | Ratio [33]: 0.00147 | Ratio [34]: 0.001 | AUC at 24 h [35]: 0.993 µM·h

COc1cc(NC(C)CCCN)c2ncccc2c1 (configuration not stated) [PRIMAQUINE]
IC50 [2]: > 133 µM | AUC at 24 h [36]: 1.71 µM·h | Ratio [37]: 0.002 | IC50 [3]: > 133 µM | IC50 [4]: > 133 µM | concentration at 24 h [38]: 71 nM
